The source made the active and inactive calls. The calls are words filed in the database; no cut-off is given here.
Assays:
[1] = system: NCI-H146; test: Antiproliferative activity against human NCI-H146 cells assessed as inhibition of cell growth incubated for 72 hrs by celltiter-glo assay; assay type: functional, cell-based; details: NCI-H146, 72 h
[2] = system: Toledo; test: Antiproliferative activity against human Toledo cells assessed as inhibition of cell growth incubated for 72 hrs by celltiter-glo assay; assay type: functional, cell-based
[3] = system: C-33-A; test: Antiproliferative activity against human C-33-A cells assessed as inhibition of cell growth incubated for 72 hrs by celltiter-glo assay; assay type: functional, cell-based
[4] = system: U2OS; test: Induction of mitotic arrest in human U2OS cells at 1 micromol/L incubated for 86 hrs by time-lapse microscopic analysis; assay type: functional, cell-based; details: dose 1.0 µmol/L
[5] = system: NCI-H226; test: Antiproliferative activity against human NCI-H226 cells assessed as inhibition of cell growth incubated for 72 hrs by celltiter-glo assay; assay type: functional, cell-based; details: NCI-H226, 72 h
[6] = system: SET-2; test: Antiproliferative activity against human SET2 cells assessed as inhibition of cell growth incubated for 72 hrs by celltiter-glo assay; assay type: functional, cell-based; details: SET-2, 72 h
[7] = target: Serine/threonine-protein kinase PAK 4 (Homo sapiens, UniProt O96013); test: Inhibition of recombinant PAK4 (unknown origin)
[8] = system: HeLa; test: Inhibition of cdc20-BUB3 protein-protein interaction in human nocodazole arrested HeLa cells by Coimmunoprecipitation analysis; assay type: cell-based
[9] = target: Serine/threonine-protein kinase haspin (Homo sapiens, UniProt Q8TF76); test: Inhibition of recombinant Haspin (unknown origin)
[10] = system: HeLa; test: Induction of mitotic arrest in human nocodazole-arrested HeLa cells assessed as delocalization of borealin at 1 micromol/L in presence of MG132; assay type: functional, cell-based; details: dose 1.0 µmol/L
[11] = system: KM12; test: Antiproliferative activity against human KM12 cells assessed as inhibition of cell growth incubated for 72 hrs by celltiter-glo assay; assay type: functional, cell-based; details: KM12, 72 h
[12] = target: Vascular endothelial growth factor receptor 3 (Homo sapiens, UniProt P35916); test: Inhibition of recombinant VEGFR3 (unknown origin)
Vascular endothelial growth factor receptor 3, sequence (P35916 whole entry): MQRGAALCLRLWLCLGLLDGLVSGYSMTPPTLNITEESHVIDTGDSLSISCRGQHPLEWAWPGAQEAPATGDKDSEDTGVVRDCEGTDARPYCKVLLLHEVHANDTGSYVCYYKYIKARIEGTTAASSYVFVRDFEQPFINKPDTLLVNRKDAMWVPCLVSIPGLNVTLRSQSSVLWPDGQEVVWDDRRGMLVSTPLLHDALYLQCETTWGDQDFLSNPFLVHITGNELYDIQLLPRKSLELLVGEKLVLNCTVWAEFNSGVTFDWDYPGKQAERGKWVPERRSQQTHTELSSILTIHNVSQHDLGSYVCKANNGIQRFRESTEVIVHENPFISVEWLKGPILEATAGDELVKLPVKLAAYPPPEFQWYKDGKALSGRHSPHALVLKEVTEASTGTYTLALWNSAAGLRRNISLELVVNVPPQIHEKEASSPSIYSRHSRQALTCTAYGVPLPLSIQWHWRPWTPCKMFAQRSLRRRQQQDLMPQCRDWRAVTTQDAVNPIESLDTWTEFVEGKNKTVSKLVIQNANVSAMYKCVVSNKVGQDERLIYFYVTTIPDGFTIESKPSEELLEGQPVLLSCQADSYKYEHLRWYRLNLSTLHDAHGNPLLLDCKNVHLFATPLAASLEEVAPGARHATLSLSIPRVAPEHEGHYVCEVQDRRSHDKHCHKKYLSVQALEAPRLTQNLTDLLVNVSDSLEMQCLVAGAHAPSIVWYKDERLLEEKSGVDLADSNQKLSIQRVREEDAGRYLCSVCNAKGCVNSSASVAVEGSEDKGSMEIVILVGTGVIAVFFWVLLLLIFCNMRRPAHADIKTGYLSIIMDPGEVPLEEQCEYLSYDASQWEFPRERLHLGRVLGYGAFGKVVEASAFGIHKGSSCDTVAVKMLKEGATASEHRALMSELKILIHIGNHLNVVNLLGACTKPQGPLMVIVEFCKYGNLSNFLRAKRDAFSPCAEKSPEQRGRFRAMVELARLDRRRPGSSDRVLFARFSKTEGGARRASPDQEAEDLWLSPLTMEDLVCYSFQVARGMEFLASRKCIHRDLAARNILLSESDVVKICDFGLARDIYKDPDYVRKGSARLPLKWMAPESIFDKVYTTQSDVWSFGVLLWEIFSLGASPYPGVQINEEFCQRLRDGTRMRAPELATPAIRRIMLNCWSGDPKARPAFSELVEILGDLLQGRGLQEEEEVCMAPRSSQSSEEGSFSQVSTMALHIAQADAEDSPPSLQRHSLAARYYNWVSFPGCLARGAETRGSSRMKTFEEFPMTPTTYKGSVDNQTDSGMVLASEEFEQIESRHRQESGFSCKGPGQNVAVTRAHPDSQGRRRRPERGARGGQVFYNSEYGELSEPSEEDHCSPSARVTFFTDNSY

[13] = target: Insulin receptor (Homo sapiens, UniProt P06213); test: Inhibition of recombinant IR (unknown origin)
[14] = Oral bioavailability in Athymic nu-nu mouse at 100 mg/kg measured upto 24 hrs by LC-MS/MS analysis; assay type: ADME, organism-based; details: in vivo
[15] = Cmax in Athymic nu-nu mouse at 100 mg/kg, po measured upto 24 hrs by LC-MS/MS analysis; assay type: ADME, organism-based; details: in vivo
[16] = target: Proto-oncogene tyrosine-protein kinase receptor Ret (Homo sapiens, UniProt P07949); test: Inhibition of recombinant RET (unknown origin)
Proto-oncogene tyrosine-protein kinase receptor Ret, sequence (P07949 whole entry): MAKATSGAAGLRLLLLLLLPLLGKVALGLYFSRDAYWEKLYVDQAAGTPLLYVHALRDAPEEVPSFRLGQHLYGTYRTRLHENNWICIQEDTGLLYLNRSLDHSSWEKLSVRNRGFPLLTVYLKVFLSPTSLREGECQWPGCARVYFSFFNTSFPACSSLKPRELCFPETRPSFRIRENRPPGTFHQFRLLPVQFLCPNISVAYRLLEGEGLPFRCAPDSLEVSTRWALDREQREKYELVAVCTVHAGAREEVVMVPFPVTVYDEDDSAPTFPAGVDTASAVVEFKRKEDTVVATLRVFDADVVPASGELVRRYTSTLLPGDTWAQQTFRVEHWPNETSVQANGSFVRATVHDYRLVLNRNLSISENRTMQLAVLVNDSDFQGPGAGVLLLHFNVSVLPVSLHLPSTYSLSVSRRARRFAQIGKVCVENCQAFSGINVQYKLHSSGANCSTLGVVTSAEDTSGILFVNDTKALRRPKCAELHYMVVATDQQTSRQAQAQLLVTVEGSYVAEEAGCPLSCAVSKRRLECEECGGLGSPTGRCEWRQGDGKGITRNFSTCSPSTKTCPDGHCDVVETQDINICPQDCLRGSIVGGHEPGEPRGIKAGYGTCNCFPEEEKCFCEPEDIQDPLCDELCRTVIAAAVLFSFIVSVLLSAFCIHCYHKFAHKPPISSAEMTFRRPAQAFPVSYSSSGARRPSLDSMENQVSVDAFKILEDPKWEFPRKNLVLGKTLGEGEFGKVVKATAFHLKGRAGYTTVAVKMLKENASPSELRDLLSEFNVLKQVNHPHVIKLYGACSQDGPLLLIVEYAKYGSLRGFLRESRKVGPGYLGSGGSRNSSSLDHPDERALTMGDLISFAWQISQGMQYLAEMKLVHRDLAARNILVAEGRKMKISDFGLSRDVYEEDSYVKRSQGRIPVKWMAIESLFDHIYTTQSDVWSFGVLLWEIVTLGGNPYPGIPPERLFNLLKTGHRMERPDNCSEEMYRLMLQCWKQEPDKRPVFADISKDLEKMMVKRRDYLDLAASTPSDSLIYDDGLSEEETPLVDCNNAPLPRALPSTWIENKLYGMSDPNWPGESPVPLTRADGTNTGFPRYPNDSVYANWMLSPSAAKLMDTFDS

[17] = system: SW948; test: Antiproliferative activity against human SW948 cells assessed as inhibition of cell growth incubated for 72 hrs by celltiter-glo assay; assay type: functional, cell-based; details: SW948, 72 h
[18] = Inhibition of recombinant SULU1 (unknown origin); design: species or system Homo sapiens
[19] = system: MeWo; test: Antiproliferative activity against human MeWo cells assessed as inhibition of cell growth incubated for 72 hrs by celltiter-glo assay; assay type: functional, cell-based
[20] = system: NCI-H322M; test: Antiproliferative activity against human NCI-H322M cells assessed as inhibition of cell growth incubated for 72 hrs by celltiter-glo assay; assay type: functional, cell-based
[21] = Half life in Athymic nu-nu mouse at 10 mg/kg, po measured upto 24 hrs by LC-MS/MS analysis; assay type: ADME, organism-based; details: in vivo
[22] = system: HL-60; test: Antiproliferative activity against human HL-60 cells assessed as inhibition of cell growth incubated for 72 hrs by celltiter-glo assay; assay type: functional, cell-based; details: HL-60, 72 h
[23] = system: LS174T; test: Antiproliferative activity against human LS174T cells assessed as inhibition of cell growth incubated for 72 hrs by celltiter-glo assay; assay type: functional, cell-based
[24] = system: BT-474; test: Antiproliferative activity against human BT-474 cells assessed as inhibition of cell growth incubated for 72 hrs by celltiter-glo assay; assay type: functional, cell-based; details: BT-474, 72 h
[25] = target: Maternal embryonic leucine zipper kinase (Homo sapiens, UniProt Q14680); test: Inhibition of recombinant MELK (unknown origin)
[26] = system: OPM-2; test: Antiproliferative activity against human OPM-2 cells assessed as inhibition of cell growth incubated for 72 hrs by celltiter-glo assay; assay type: functional, cell-based; details: OPM-2, 72 h
[27] = system: BJ; test: Inhibition of colony formation in human BJ cells assessed as decrease in colony number at 0.5 to 3 uM incubated for 72 hrs followed by compound washout and measured after 18 days by crystal violet staining based assay; assay type: functional, cell-based; details: dose 0.5-3 µM
[28] = system: SK-OV-3; test: Antiproliferative activity against human SK-OV-3 cells assessed as inhibition of cell growth incubated for 72 hrs by celltiter-glo assay; assay type: functional, cell-based; details: SK-OV-3, 72 h
[29] = target: Serine/threonine-protein kinase NIM1 (Homo sapiens, UniProt Q8IY84); test: Inhibition of recombinant NIM1 (unknown origin)
Serine/threonine-protein kinase NIM1, sequence (Q8IY84 whole entry): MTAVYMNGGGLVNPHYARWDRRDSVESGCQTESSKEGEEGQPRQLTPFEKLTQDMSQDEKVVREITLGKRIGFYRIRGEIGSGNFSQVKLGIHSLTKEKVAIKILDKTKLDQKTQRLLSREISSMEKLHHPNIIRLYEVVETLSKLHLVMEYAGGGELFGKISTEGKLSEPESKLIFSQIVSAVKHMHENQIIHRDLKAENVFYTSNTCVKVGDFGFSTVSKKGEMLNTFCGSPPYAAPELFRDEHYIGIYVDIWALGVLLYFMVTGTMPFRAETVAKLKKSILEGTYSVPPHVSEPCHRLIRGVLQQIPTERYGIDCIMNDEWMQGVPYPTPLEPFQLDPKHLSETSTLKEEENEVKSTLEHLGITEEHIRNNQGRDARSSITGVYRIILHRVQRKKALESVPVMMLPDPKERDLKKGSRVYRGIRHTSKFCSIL

[30] = target: Protein kinase C beta type (Homo sapiens, UniProt P05771); test: Inhibition of recombinant PKCbeta (unknown origin)
Protein kinase C beta type, sequence (P05771 whole entry): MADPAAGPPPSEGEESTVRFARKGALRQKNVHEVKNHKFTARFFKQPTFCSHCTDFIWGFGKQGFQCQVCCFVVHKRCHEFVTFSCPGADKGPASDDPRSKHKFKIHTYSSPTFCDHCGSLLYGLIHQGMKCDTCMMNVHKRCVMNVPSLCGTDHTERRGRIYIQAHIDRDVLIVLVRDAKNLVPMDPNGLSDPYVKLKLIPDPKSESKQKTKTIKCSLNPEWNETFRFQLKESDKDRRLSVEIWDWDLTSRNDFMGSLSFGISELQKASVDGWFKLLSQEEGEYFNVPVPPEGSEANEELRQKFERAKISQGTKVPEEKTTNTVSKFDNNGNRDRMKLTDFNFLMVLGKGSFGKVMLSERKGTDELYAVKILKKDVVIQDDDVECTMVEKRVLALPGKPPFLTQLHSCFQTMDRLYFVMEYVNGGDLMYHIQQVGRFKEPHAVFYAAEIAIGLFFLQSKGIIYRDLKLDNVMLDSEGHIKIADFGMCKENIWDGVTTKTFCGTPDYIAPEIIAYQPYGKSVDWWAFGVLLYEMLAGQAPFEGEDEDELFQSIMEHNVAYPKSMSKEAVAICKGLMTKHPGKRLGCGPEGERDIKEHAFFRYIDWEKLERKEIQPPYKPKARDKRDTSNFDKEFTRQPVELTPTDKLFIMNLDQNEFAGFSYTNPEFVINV

[31] = system: SK-MEL-28; test: Antiproliferative activity against human SK-MEL-28 cells assessed as inhibition of cell growth incubated for 72 hrs by celltiter-glo assay; assay type: functional, cell-based; details: SK-MEL-28, 72 h
[32] = Oral bioavailability in Athymic nu-nu mouse at 10 mg/kg measured upto 24 hrs by LC-MS/MS analysis; assay type: ADME, organism-based; details: in vivo
[33] = system: UO-31; test: Antiproliferative activity against human UO-31 cells assessed as inhibition of cell growth incubated for 72 hrs by celltiter-glo assay; assay type: functional, cell-based; details: UO-31, 72 h
[34] = system: RERF-LC-AI; test: Antiproliferative activity against human RERF-LC-AI cells assessed as inhibition of cell growth incubated for 72 hrs by celltiter-glo assay; assay type: functional, cell-based
[35] = system: T47D; test: Antiproliferative activity against human T47D cells assessed as inhibition of cell growth incubated for 72 hrs by celltiter-glo assay; assay type: functional, cell-based
[36] = system: HCT-116; test: Growth inhibition of human HCT-116 cells at 1 micromol/L incubated for 24 hrs; assay type: functional, cell-based; details: dose 1.0 µmol/L
[37] = target: Epidermal growth factor receptor (Homo sapiens, UniProt P00533)
Epidermal growth factor receptor, sequence (P00533 whole entry): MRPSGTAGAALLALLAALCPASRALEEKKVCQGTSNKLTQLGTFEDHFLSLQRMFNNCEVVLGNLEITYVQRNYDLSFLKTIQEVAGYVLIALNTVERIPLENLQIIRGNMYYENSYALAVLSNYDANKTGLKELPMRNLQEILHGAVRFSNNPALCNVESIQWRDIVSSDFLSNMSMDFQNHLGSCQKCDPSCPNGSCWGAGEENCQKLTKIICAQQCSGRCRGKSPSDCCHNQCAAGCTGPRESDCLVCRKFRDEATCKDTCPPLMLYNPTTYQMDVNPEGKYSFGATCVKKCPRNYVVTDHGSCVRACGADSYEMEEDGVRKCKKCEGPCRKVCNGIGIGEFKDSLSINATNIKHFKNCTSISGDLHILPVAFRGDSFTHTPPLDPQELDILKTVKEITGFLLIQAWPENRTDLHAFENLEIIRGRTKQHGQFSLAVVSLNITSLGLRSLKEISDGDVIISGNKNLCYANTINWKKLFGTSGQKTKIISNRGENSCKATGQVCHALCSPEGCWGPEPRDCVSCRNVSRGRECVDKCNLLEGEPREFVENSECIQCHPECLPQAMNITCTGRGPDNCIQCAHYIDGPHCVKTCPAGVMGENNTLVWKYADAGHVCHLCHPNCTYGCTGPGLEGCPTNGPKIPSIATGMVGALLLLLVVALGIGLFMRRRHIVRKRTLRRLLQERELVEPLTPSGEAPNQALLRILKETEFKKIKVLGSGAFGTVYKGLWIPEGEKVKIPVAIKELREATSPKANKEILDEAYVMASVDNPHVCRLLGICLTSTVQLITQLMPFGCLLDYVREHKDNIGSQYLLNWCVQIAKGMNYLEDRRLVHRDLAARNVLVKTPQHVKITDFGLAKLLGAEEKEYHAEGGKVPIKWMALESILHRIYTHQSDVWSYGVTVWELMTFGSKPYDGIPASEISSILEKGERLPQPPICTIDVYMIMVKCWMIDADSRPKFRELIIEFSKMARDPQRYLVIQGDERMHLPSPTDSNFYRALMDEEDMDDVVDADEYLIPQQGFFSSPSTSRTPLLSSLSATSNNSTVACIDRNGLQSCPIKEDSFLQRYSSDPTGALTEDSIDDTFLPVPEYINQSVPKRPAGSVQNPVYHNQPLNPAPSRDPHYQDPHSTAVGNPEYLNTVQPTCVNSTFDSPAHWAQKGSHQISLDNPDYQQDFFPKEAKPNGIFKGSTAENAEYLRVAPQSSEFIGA
Description: Inhibition of recombinant EGFR1 (unknown origin)

[38] = Antiproliferative activity against human GM13705 cells assessed as inhibition of cell growth incubated for 72 hrs by celltiter-glo assay; assay type: functional, cell-based; details: GM13705, 72 h
[39] = system: K562; test: Antiproliferative activity against human K562 cells assessed as inhibition of cell growth incubated for 72 hrs by celltiter-glo assay; assay type: functional, cell-based; details: K562, 72 h
[40] = system: U2OS; test: Inhibition of colony formation in human U2OS cells assessed as decrease in colony number incubated for 22 hrs followed by compound washout and measured after 8 days by crystal violet staining based assay; assay type: functional, cell-based
[41] = system: SK-LU-1; test: Antiproliferative activity against human SK-LU-1 cells assessed as inhibition of cell growth incubated for 72 hrs by celltiter-glo assay; assay type: functional, cell-based; details: SK-LU-1, 72 h
[42] = system: U2OS; test: Induction of mitotic arrest in human U2OS cells expressing YFP-alpha-tubulin assessed as effect on bipolar spindle formation at 1 micromol/L by time-lapse microscopic analysis; assay type: functional, cell-based; details: dose 1.0 µmol/L
[43] = Half life in Athymic nu-nu mouse at 10 mg/kg, iv measured upto 24 hrs by LC-MS/MS analysis; assay type: ADME, organism-based; details: in vivo
[44] = system: HCT-116; test: Antiproliferative activity against human HCT-116 cells assessed as inhibition of cell growth incubated for 72 hrs by celltiter-glo assay; assay type: functional, cell-based; details: HCT-116, 72 h

## CCc1cccc(CC)c1NC(=O)c1nn(C)c2c1CCc1cnc(Nc3ccc(C(=O)NC4CCN(C)CC4)cc3OC(F)(F)F)nc1-2
[1]
  IC50: 4.28 µM
[2]
  IC50: 1.72 µM
[3]
  IC50: 3.01 µM
[4]
  Activity: Active
[5]
  IC50: 2.01 µM
[6]
  IC50: 10 µM
[7]
  IC50: > 10 µM
[8]
  inhibition: Active
[9]
  IC50: > 10 µM
[10]
  Activity: Active
[11]
  IC50: 0.586 µM
[12]
  IC50: > 10 µM
[13]
  IC50: > 10 µM
[14]
  bioavailability: 22.6%
[15]
  Cmax: 1790 nM
[16]
  IC50: > 10 µM
[17]
  IC50: 1.96 µM
[18]
  IC50: > 10 µM
[19]
  IC50: 3.26 µM
[20]
  IC50: 1.55 µM
[21]
  half-life: 8.01 h
[22]
  IC50: 1.58 µM
[23]
  IC50: 1.94 µM
[24]
  IC50: 1.16 µM
[25]
  IC50: 6.01 µM
[26]
  IC50: 2.31 µM
[27]
  Activity: Active
[28]
  IC50: 4.26 µM
[29]
  IC50: > 10 µM
[30]
  IC50: > 10 µM
[31]
  IC50: 2.59 µM
[32]
  bioavailability: 37.9%
[33]
  IC50: 3.62 µM
[34]
  IC50: 2.07 µM
[35]
  IC50: 2.86 µM
[36]
  growth inhibition (GI): Active
[37]
  IC50: > 10 µM
[38]
  IC50: 10 µM
[39]
  IC50: 2.71 µM
[40]
  Activity: Active
[41]
  IC50: 5 µM
[42]
  Activity: Active
[43]
  half-life: 7.65 h
[44]
  IC50: 2.04 µM

From ChEMBL document CHEMBL5705893, “Targeting the mitotic checkpoint for cancer therapy with NMS-P715, an inhibitor of MPS1 kinase” (Cancer Res, 2010)
